From patent publication US9945845B2, “Methods of screening using amphibians” (priority 2009, dated 2018)
Like-named read-outs stand apart in the source and are kept apart here.

Tests used:
LEC = assay: cells; format: cell-based, human; conditions: Homo sapiens; for activity at 1 µM: 1 μM in 0.1% DMSO
In short: (§1)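 HUVEC and LEC in EBM with 20% FBS, hydrocortisone and dibutyryl-cAMP, up to eleven passages, treated overnight at 37 °C with compound at 1 μM in 0.1% DMSO, then fixed in 4% paraformaldehyde. Read-out: total tube length (μm) per area over three hotspot images per well, triplicate wells.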

HUVEC [1] = assay: HUVEC tube formation assay; format: cell-based, human; conditions: Homo sapiens, HUVEC, 1 μM in 0.1% DMSO
In short: as §1

[2] = system: blood vessel development and/or lymphangiogenesis in Xenopus embryos; format: in vivo, Xenopus laevis
In short: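 Albino Xenopus embryos treated at 20 μM final (from 10-mM DMSO stocks) in screening medium, 7 per well, from stage 31 (37 hpf) to stage 35/36 (50 hpf) or 42 (80 hpf). Fixed in 4% paraformaldehyde and scored by whole-mount in situ hybridization: vasculogenesis and intersomitic vein angiogenesis at stage 35/36, lymph vessel development at stage 42.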

Xenopus embryos = system: Xenopus embryos
In short: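 Stage 31 (37 hpf) Xenopus embryos, five per well, exposed to 20 µM compound in 1% DMSO at 23 °C for 4 days. Edema, lethality and other external phenotypes were scored daily by two investigators at stages 39, 41, 45 and 47.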

HUVEC [3] = assay: HUVEC cell proliferation assay; format: cell-based, human; conditions: Homo sapiens, HUVEC, 48 h, 10 μM in 0.1% DMSO, 48 hours; read-out: HUVEC proliferation
In short: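 HUVEC and LEC in EBM with 20% FBS, hydrocortisone and dibutyryl-cAMP were treated with compound at 10 μM in 0.1% DMSO for 48 hours. Viable cells read by fluorescence, in five replicates.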

For `Oc1cc(-c2ccccc2)nc2nc(Cl)ccc12` [7-Chloro-4-hydroxy-2-phenyl-1,8-naphthyridine], the activity at 1 µM (LEC; overnight, read-out: LEC tube formation) was 50 to 85%, the activity at 1 µM (LEC; read-out: LEC tube formation (tube length)) was 50 to 85% and the IC50 (LEC; doses 0.2-2 μM, data not shown, read-out: IC50 of LEC tube formation) was 1300 nM. The activity at 1 µM (HUVEC [1]; overnight, read-out: HUVEC tube formation) was 50 to 85%, the activity at 1 µM (HUVEC [1]; read-out: HUVEC tube formation (tube length)) was 50 to 85% and the “blood vessel development phenotype (apj expression, in words)” value ([2]; 20 μM from stage 31, fixed at stage 35/36) was “interfered not only with ISV angiogenesis but also with VVN assembly”. For the same molecule, the “lymph vessel development phenotype (vegfr3 expression, in words)” value ([2]; 20 μM from stage 31, fixed at stage 42) was “stunted, disorganized lymphatic vessels arising from the ALS and ALH”, the ALH phenotype ([2]; anterior lymph heart, Xenopus embryos) was “dysplastic” and the ALS phenotype ([2]; anterior lymph sac, Xenopus embryos) was “stunted”. The ISV phenotype ([2]; intersomitic vessels, Xenopus embryos) was “stunted”, the PCV phenotype ([2]; posterior cardinal vein, Xenopus embryos) was “normal” and the PLV phenotype ([2]; posterior lymph vessels, Xenopus embryos) was “hypoplastic”. For the same molecule, the VVN phenotype ([2]; vitelline vein network, Xenopus embryos) was “hypoplastic”, the “Lethality (NF)” value (Xenopus embryos; compounds causing edema, 20 μM, 1% DMSO, treatment from stage 31, scored to stage 47) was 39 NF and the “Type of edema Pericordial” value (Xenopus embryos; embryonic stage) was 39 embryonic stages according to Nieuwkoop and Faber (NF). For the same molecule, the Lethality (Xenopus embryos; embryonic stage, — = no stage of lethality given) was 39 embryonic stages according to Nieuwkoop and Faber (NF) and the activity at 10 µM (HUVEC [3]) was 42 to 48%.
